Results as given in patent publication US9371365B2, “Modified compstatin with peptide backbone and C-terminal modifications” (The Trustees of the University of Pennsylvania, priority 2009, dated 2016).
Like-named read-outs stand apart in the source and are kept apart here. Bridge positions count the residues as written; N and C are the ends. Square brackets hold non-standard residues; d marks the D form. Peptide text beside a SMILES is read from it. Trp(1-Me) = Cn1cc(C[C@H](N)C(=O)O)c2ccccc21; NMeY = CN[C@@H](Cc1ccc(O)cc1)C(=O)O; NMeV = CN[C@H](C(=O)O)C(C)C; NMeA = CN[C@@H](C)C(=O)O; Nle = CCCC[C@H](N)C(=O)O; Sar = CNCC(=O)O

Columns and labels:
C3b = biological target: T1, C3b (Homo sapiens, UniProt P01024); assay: SPR analysis of binding kinetics to immobilized C3b; conditions: for kd: 25° C., PBS-T; for kon: pH 7.4, read-out: ka; for rKD SPR / rka / rkd: relative to peptide 14
T1 construct: biotin (chemical biotinylation of C3b)
T1 sequence (P01024 23-667 limits assumed): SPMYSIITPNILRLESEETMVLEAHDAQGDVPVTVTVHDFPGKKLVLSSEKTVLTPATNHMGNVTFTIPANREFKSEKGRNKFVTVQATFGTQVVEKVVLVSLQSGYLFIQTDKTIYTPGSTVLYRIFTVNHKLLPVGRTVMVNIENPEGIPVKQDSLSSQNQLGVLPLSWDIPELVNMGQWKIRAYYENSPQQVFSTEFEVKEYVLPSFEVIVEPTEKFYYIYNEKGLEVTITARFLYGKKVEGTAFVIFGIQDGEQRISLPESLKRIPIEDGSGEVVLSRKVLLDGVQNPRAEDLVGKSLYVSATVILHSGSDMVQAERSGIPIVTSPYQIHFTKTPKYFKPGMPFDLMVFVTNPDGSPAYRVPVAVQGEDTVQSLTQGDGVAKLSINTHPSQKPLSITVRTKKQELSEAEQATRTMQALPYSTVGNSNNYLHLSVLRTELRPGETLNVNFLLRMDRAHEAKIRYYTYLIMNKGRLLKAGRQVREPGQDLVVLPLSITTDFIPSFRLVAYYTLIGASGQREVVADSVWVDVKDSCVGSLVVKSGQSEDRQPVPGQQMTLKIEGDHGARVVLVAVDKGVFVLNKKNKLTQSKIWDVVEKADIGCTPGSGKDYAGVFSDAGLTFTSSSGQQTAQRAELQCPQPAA
T1 sequence (P01024 749-1663 limits assumed): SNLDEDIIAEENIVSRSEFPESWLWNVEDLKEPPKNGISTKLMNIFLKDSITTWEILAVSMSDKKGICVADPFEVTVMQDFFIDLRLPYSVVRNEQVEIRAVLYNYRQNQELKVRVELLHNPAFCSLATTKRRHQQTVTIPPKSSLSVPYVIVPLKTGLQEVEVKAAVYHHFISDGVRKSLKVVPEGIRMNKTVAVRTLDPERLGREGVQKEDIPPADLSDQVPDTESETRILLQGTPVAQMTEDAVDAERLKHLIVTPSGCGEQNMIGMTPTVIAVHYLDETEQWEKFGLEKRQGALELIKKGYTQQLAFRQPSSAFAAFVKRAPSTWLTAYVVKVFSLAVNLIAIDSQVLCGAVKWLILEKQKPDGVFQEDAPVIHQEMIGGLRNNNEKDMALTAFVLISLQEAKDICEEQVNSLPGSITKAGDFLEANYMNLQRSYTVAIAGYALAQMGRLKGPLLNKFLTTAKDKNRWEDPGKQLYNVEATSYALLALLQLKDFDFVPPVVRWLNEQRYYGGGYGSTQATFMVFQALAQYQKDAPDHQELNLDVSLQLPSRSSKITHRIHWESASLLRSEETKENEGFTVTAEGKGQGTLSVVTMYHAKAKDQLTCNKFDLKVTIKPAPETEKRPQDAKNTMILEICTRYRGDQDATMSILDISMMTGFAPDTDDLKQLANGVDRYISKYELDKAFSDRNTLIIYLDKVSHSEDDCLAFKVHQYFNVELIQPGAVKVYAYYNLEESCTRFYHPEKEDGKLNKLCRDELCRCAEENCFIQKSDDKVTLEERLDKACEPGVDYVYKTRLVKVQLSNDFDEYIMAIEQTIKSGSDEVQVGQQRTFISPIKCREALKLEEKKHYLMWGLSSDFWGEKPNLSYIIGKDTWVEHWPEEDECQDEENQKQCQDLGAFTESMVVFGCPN
Procedure: (§1) The kinetics of the interaction between C3b and each compstatin analog was analyzed by SPR on a Biacore 3000 instrument (GE Healthcare Corp., Piscataway, N.J.) at 25° C. using PBS-T (10 mM sodium phosphate, 150 mM NaCl, 0.005% Tween-20, pH 7.4) as the running buffer, as described above. In brief, biotinylated C3b (30 μg/mL) was immobilized on a streptavidin-coated sensor chip, and a two-fold serial dilution series (1 μM-500 pM) of each analog was injected for 2 min at 30 μl/min, with a dissociation phase of 5-10 min. Peptide [Trp(Me)^4]-Ac-compstatin was included in each experimental series as an internal control and reference. Data analysis was performed using Scrubber (BioLogic Software, Campbell, Australia). The signals from an untreated flow cell and an ensemble of buffer blank injections were subtracted to correct for buffer effects and injection artifacts. Processed biosensor data were globally fitted to a 1:1 Langmuir binding model, and the equilibrium dissociation constant (KD) was calculated from the equation KD=kd/ka. Peptide solutions were injected in duplicate in every experiment, and each screening assay was performed at least twice.
as §1, with “in Example 1.” for “above.”, “μg/ml)” for “μg/mL)”, “Peptide [Trp(Me)^4]-Ac-compstatin was included in each experimental series as an internal control and reference.” left out

C3 = biological target: T2, C3 (Homo sapiens, UniProt P01024); assay: ITC analysis of binding to C3; conditions: for ΔH / −TΔS / ΔG: ITC; for ΔG: ΔG=ΔH−TΔS; for rKD ITC / ΔΔG / ΔΔH / −TΔΔS: relative to peptide 14
T2 construct: C3 was purified from fresh human plasma; from tissue; host or cells: fresh human plasma (blood bank of the Hospital of the University of Pennsylvania)
T2 sequence (P01024 23-667 limits assumed): as the sequence (P01024 23-667 limits assumed) above
T2 sequence (P01024 672-1663 limits assumed): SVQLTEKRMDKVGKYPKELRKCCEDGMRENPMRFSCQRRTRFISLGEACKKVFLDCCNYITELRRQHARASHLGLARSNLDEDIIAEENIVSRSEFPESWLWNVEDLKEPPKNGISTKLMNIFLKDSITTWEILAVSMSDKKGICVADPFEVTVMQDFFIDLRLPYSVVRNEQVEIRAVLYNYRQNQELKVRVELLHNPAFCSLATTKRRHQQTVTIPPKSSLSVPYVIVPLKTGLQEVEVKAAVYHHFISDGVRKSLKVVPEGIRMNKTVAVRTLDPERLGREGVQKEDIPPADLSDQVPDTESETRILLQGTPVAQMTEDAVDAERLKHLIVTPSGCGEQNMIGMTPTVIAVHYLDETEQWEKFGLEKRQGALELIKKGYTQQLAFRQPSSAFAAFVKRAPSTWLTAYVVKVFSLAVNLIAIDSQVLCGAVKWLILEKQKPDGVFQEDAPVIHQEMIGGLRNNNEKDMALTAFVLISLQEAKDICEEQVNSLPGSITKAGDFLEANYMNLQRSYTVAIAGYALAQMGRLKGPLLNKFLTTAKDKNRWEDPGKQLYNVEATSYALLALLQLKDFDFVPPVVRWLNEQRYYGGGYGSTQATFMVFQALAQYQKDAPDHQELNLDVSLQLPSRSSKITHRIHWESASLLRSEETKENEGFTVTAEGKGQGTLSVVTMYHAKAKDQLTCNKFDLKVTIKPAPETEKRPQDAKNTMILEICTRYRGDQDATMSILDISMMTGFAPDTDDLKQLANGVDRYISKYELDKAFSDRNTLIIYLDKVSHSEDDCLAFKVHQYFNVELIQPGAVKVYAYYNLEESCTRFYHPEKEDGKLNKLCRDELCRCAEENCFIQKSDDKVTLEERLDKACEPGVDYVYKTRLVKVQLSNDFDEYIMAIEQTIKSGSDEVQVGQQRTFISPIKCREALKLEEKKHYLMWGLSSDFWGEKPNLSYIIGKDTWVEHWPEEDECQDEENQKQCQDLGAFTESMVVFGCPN
Procedure: C3 was purified from fresh human plasma obtained from the blood bank of the Hospital of the University of Pennsylvania. In brief, the plasma was fractionated with 15% (w/v) PEG 3350, and the pellet was resuspended in 20 mM phosphate buffer, pH 7.8, and then subjected to anion-exchange chromatography on a DEAE-HR 40 column (50×5 cm; Millipore Inc., Billerica, Mass.) with the same buffer. Proteins were eluted with 6 L of a linear gradient (15-70%) of 20 mM phosphate buffer, pH 7.8, containing 500 mM NaCl. C3 was further purified on a size-exclusion Superdex 200 26/60 column (Amersham Biosciences) and a Mono S column (Amersham Biosciences) to separate C3 from C3(H2O).
All titrations were performed in PBS (10 mM phosphate buffer with 150 mM NaCl, pH 7.4) at 25° C. using multiple peptide injections of 2-7 μL each. The raw isotherms were corrected for the heats of dilution by subtracting the isotherms representing peptide injections into the buffer. The resulting isotherms were fitted to a single site of sites models using Origin 7.0 software, and the model that produced the lowest χ^2 value was deemed to be appropriate for the respective data set. The Gibbs free energy was calculated as ΔG=ΔH−TΔS. Each experiment was repeated at least twice.

[1] = test system: classical pathway of complement; assay: Inhibition of classical pathway complement activation, ELISA in human serum; assay type: biochemical; conditions: for IC50: read-out: IC50; for rP: relative potency compared to peptide 14; for inhibition of complement activation, result in words: ELISA, N-methylation scan
Procedure: The ability of the compstatin analogs to inhibit the activation of the classical pathway of complement was assessed by ELISA (Mallik et al., 2005, J Med Chem 48:274-86). In brief, complement was activated in human serum using an antigen-antibody complex in the presence or absence of compstatin analogs, and the deposition of C3 fragments on the plate surface was detected using an HRP-conjugated polyclonal anti-C3 antibody. […] The percent inhibition was plotted against the peptide concentration, and the resulting data set was fitted to the logistic dose-response function using Origin 7.0 software. IC50 values were obtained from the fitted parameters that produced the lowest χ^2 value. Each analog was assayed at least three to seven times.
The ability of the compstatin analogs to inhibit the activation of the classical pathway of complement was assessed by ELISA as described in Example 1. Each conjugate was assayed at least three times.

| Compound | kd (C3b; SPR) | kon (C3b) [M⁻¹ s⁻¹] | rKD SPR (C3b) | rka (C3b) | rkd (C3b) | ΔH (C3) [kcal/mol] | −TΔS (C3) [kcal/mol] | ΔG (C3) [kcal/mol] | rKD ITC (C3) | ΔΔG (C3) [kcal/mol] | ΔΔH (C3) [kcal/mol] | −TΔΔS (C3) [kcal/mol] | IC50 ([1]; Table 1-2) [nM] | IC50 ([1]; exemplary analogs table) [nM] | rP [1] | fold stronger affinity than peptide 14 (C3b; SPR) | inhibition of complement activation, result in words [1] |
| --- | --- | --- | --- | --- | --- | --- | --- | --- | --- | --- | --- | --- | --- | --- | --- | --- | --- |
| CC[C@H](C)[C@H](NC(=O)[C@@H]1CSSC[C@H](NC(=O)[C@@H](NC(C)=O)[C@@H](C)CC)C(=O)N[C@@H](C(C)C)C(=O)N[C@@H](Cc2cn(C)c3ccccc23)C(=O)N[C@@H](CCC(N)=O)C(=O)N[C@@H](CC(=O)O)C(=O)N[C@@H](Cc2c[nH]c3ccccc23)C(=O)NCC(=O)N[C@@H](C)C(=O)N[C@@H](Cc2c[nH]cn2)C(=O)N[C@@H](CCCNC(=N)N)C(=O)N1)C(N)=O [Peptide 16] | 11.0 10^−3/s | 1e+06 | 1.1 | 1.0 | 1.0 | -16.6 | 5.7 | -10.9 | 1.2 | -0.2 | 1.0 | -1.3 | – | – | – | – | – |
| CC[C@H](C)[C@H](NC(C)=O)C(=O)N[C@H]1CSSC[C@@H](C(=O)N[C@@H](CC(C)C)C(N)=O)NC(=O)[C@H](CCCNC(=N)N)NC(=O)[C@H](Cc2c[nH]cn2)NC(=O)[C@H](C)NC(=O)CN(C)C(=O)[C@H](Cc2c[nH]c3ccccc23)NC(=O)[C@H](CC(=O)O)NC(=O)[C@H](CCC(N)=O)NC(=O)[C@H](Cc2cn(C)c3ccccc23)NC(=O)[C@H](C(C)C)NC1=O [Peptide 18, Ac−Ic[CV(^1−MeW)QDW(^N−MeG)AHRC]L-NH2] (Ac-ICV[Trp(1-Me)]QDW[Sar]AHRCL-NH2; disulfide 2-12) | 6.0 10^−3/s | 1.3e+06 | 2.6 | 1.3 | 1.9 | – | – | – | – | – | – | – | 108 | 108 | 1.9 | – | – |
| CCCC[C@H](NC(=O)[C@@H]1CSSC[C@H](NC(=O)[C@@H](NC(C)=O)[C@@H](C)CC)C(=O)N[C@@H](C(C)C)C(=O)N[C@@H](Cc2cn(C)c3ccccc23)C(=O)N[C@@H](CCC(N)=O)C(=O)N[C@@H](CC(=O)O)C(=O)N[C@@H](Cc2c[nH]c3ccccc23)C(=O)N(C)CC(=O)N[C@@H](C)C(=O)N[C@@H](Cc2c[nH]cn2)C(=O)N[C@@H](CCCNC(=N)N)C(=O)N1)C(N)=O [Peptide 19, Ac−Ic[CV(^1−MeW)QDW(^N−MeG)AHRC](Nle)-NH2] (Ac-ICV[Trp(1-Me)]QDW[Sar]AHRC[Nle]-NH2; disulfide 2-12) | 6.6 10^−3/s | 1.5e+06 | 2.7 | 1.5 | 1.7 | – | – | – | – | – | – | – | 109 | 109 | 1.9 | – | – |
| CC[C@H](C)[C@H](NC(C)=O)C(=O)N[C@H]1CSSC[C@@H](C(=O)N(C)[C@H](C(N)=O)[C@@H](C)CC)NC(=O)[C@H](CCCNC(=N)N)NC(=O)[C@H](Cc2c[nH]cn2)NC(=O)[C@H](C)NC(=O)CN(C)C(=O)[C@H](Cc2c[nH]c3ccccc23)NC(=O)[C@H](CC(=O)O)NC(=O)[C@H](CCC(N)=O)NC(=O)[C@H](Cc2cn(C)c3ccccc23)NC(=O)[C@H](C(C)C)NC1=O [Peptide 21, Ac−Ic[CV(^1−MeW)QDW(^N−MeG)AHRC](^N−MeI)-NH2] | 3.5 10^−3/s | 1.5e+06 | 5.2 | 1.5 | 3.2 | -17.1 | 5.7 | -11.4 | 3.3 | -0.7 | 0.5 | -1.3 | 62 | 62 | 3.3 | more than 5 fold | – |
| Ac-I[C(NMe)VYQDWGAHRC]T-NH2 (Ac-IC[NMeV]YQDWGAHRCT-NH2; disulfide 2-12; SMILES CC[C@H](C)[C@H](NC(C)=O)C(=O)N[C@H]1CSSC[C@@H](C(=O)N[C@H](C(N)=O)[C@@H](C)O)NC(=O)[C@H](CCCNC(=N)N)NC(=O)[C@H](Cc2c[nH]cn2)NC(=O)[C@H](C)NC(=O)CNC(=O)[C@H](Cc2c[nH]c3ccccc23)NC(=O)[C@H](CC(=O)O)NC(=O)[C@H](CCC(N)=O)NC(=O)[C@H](Cc2ccc(O)cc2)NC(=O)[C@H](C(C)C)N(C)C1=O) [Peptide 3] | – | – | – | – | – | – | – | – | – | – | – | – | – | – | – | – | completely inactive |
| Ac-I[CV(NMe)YQDWGAHRC]T-NH2 (Ac-ICV[NMeY]QDWGAHRCT-NH2; disulfide 2-12; SMILES CC[C@H](C)[C@H](NC(C)=O)C(=O)N[C@H]1CSSC[C@@H](C(=O)N[C@H](C(N)=O)[C@@H](C)O)NC(=O)[C@H](CCCNC(=N)N)NC(=O)[C@H](Cc2c[nH]cn2)NC(=O)[C@H](C)NC(=O)CNC(=O)[C@H](Cc2c[nH]c3ccccc23)NC(=O)[C@H](CC(=O)O)NC(=O)[C@H](CCC(N)=O)NC(=O)[C@H](Cc2ccc(O)cc2)N(C)C(=O)[C@H](C(C)C)NC1=O) [Peptide 4] | – | – | – | – | – | – | – | – | – | – | – | – | – | – | – | – | completely inactive |
| Ac-I[CVYQDWG(NMe)AHRC]T-NH2 (Ac-ICVYQDWG[NMeA]HRCT-NH2; disulfide 2-12; SMILES CC[C@H](C)[C@H](NC(C)=O)C(=O)N[C@H]1CSSC[C@@H](C(=O)N[C@H](C(N)=O)[C@@H](C)O)NC(=O)[C@H](CCCNC(=N)N)NC(=O)[C@H](Cc2c[nH]cn2)NC(=O)[C@H](C)N(C)C(=O)CNC(=O)[C@H](Cc2c[nH]c3ccccc23)NC(=O)[C@H](CC(=O)O)NC(=O)[C@H](CCC(N)=O)NC(=O)[C@H](Cc2ccc(O)cc2)NC(=O)[C@H](C(C)C)NC1=O) [Peptide 9] | – | – | – | – | – | – | – | – | – | – | – | – | – | – | – | – | completely inactive |
